The results in this text go back to PMC11477294, “In Vitro Profiling of the Antiviral Peptide TAT-I24” (International Journal of Molecular Sciences, 2024).

Where a SMILES comes first, the peptide text is derived from it. Bridges are numbered along the chain shown (N, C = ends).

In series [1] the test system is baculovirus expressing luciferase under the control of the CMV promoter. Type of series: cell-based. Particulars: luciferase reporter gene expression in HEK293 cells transduced with baculovirus-luc, MOI 5, 24 h post-infection; 1:3 peptide dilution series; non-linear regression; n = 8. The procedure: A baculovirus expressing luciferase under the control of the CMV promoter has been described previously. HEK293 cells were seeded at a density of 2 × 10^4 cells/100 µL per well in 96-well plates (Sarstedt, Germany). On the next day, cells were treated with a 1:3 dilution series of peptides and, without further pre-incubation, subsequently infected with baculovirus–luc at a multiplicity of infection (MOI) of 5. Cells were lysed 24 h post-infection using 20 µL Cell Culture Lysis Reagent (Promega, Mannheim, Germany). From the lysates, 10 µL was transferred to white 96-well plates, and luciferase was recorded using a luciferase assay system and a GloMax®-Multi Detection System (Promega, Mannheim, Germany).
Background: In a reporter assay the amount or activity of a reporter protein is the signal.

The subject of the next series is HEK293 cells. Put plainly: Cell viability assay (CellTiter-Blue) in HEK293 cells. Type of series: cell-based. Particulars: 72 h at 37 °C, 3-fold dilution series starting with 20 µM, triplicate, non-linear regression (curve fit). The procedure:
HEK293 cells were seeded at a density of 2.5 × 10^3 cells/100 µL per well in a 96-well plate (Sarstedt, Germany). In addition, a serial 1:2 dilution of the cell suspension was added to each plate to generate a standard curve. On the next day, cells were treated with serial 1:3 peptide dilutions in triplicate and incubated for 72 h at 37 °C. Then, 20 µL of CellTiter-Blue® Cell Viability Assay (Promega, Mannheim, Germany) was added to each well and incubated at 37 °C for a further 1–2 h. Fluorescence was recorded using a GloMax®-Multi Detection System (Promega, Mannheim, Germany). The percentage of viable cells was calculated from the cell dilution series from each plate by linear regression analysis. The selectivity index was calculated using the following formula: SI = CC50/IC50.
Figure S1. Cell viability assay in HEK293 cells in the presence of peptides. Cells were incubated with 3 -fold dilution series of peptides starting with a concentration of 20 µM for 72 hours and measured using the Cell Titer Blue assay. Curve fitting of % viable cells of untrea ted control was performed using Graph Pad Prism softwar e.
(1 picture or pasted object on this page, not shown here)

For series [2], the system named is MCMV strain delm157-luc rep. Type of series: cell-based, mouse cytomegalovirus. The settings on record: luciferase reporter gene expression in NIH/3T3 cells infected with replication-competent MCMV, MOI 0.5, 72 h post-infection; 1:3 dilution series; non-linear regression; n = 9. The procedure:
NIH/3T3 cells were seeded at a density of 2 × 10^4 cells/100 µL per well in a 96-well plate (Sarstedt, Germany) and allowed to attach overnight. On the next day, cells were treated with a 1:3 dilutions series of peptides and, without further pre-incubation, subsequently infected with the MCMV strain delm157-luc rep. The MCMV stock was prepared and quantified as previously described. The virus (MOI 0.5 for luc assays; for other assays, see the specific descriptions) was adsorbed to cells with the aid of centrifugal enhancement twice at 800× g for 15 min at room temperature and incubated at 37 °C for the indicated times. For the luciferase assays, the infected cells were lysed 72 h post-infection using 20 µL Cell Culture Lysis Reagent (Promega, Mannheim, Germany). From the lysates, 10 µL was transferred to white 96-well plates, and luciferase was recorded using a Luciferase Assay System and a GloMax®-Multi Detection System (Promega, Mannheim, Germany).

Series [3] has as its system human red blood cells (RBCs). Put plainly: Hemolysis assay with red blood cells. Type of series: cell-based. The settings on record: 1 h at 37 °C; for hemolysis of human RBCs: peptide dilutions in PBS or PBS + 10% donor serum, concentrations < 20 µM (1:2 dilutions), OD 450 nm of supernatants, n = 6; for swelling of RBCs (pellet size after centrifugation): peptide dilutions prepared in PBS, up to 20 µM. The procedure:
Blood from healthy volunteers was collected by venipuncture (Greiner Bio-One, Kremsmünster, Austria) into K2E K2EDTA VacuetteTM tubes (Greiner Bio-One, Kremsmünster, Austria) with 4 mL blood. The assay for hemolysis was adapted from Sæbo et al.. Blood was centrifuged at 1000× g for 10 min, and plasma was kept for further use. Red blood cells were then resuspended in 10 mL PBS and centrifuged again at 1000× g for a total of three times. Cells were then counted using a hemocytometer and seeded at a cell number of 1 × 10^7 cells/100 µL PBS per well in conical 96-well plates (ThermoFisher, Darmstadt, Germany). Next, 1:2 peptide dilutions starting from 40 µM either in PBS or 10% donor serum were prepared, and 100 µL was added to 100 µL of RBC. Plates were then incubated for one hour at 37 °C. As the positive control, three wells with 100 µL RBCs were treated with 100 µL PBS + 0.5% Triton X-100. After incubation, plates were centrifuged at 1000× g for 5 min and supernatants were transferred to flat 96-well plates. Optical density (OD) was determined at 450 nm using a GloMax®-Multi Detection System (Promega, Mannheim, Germany). Images from RBCs from light microscopy and centrifuged plates were taken using an iPhone 12 mini.

As usually defined, the IC50 is the concentration needed to halve the response being measured. `CSCC[C@H](NC(=O)[C@H](Cc1ccccc1)NC(=O)[C@H](CCCNC(=N)N)NC(=O)[C@H](C)NC(=O)[C@H](Cc1ccc(O)cc1)NC(=O)[C@H](Cc1ccccc1)NC(=O)[C@H](C)NC(=O)[C@H](CC(C)C)NC(=O)[C@H](C)NC(=O)[C@H](CCC(N)=O)NC(=O)[C@@H]1CCCN1C(=O)[C@@H]1CCCN1C(=O)[C@H](CCCNC(=N)N)NC(=O)[C@H](CCCNC(=N)N)NC(=O)[C@H](CCCNC(=N)N)NC(=O)[C@H](CCC(N)=O)NC(=O)[C@H](CCCNC(=N)N)NC(=O)[C@H](CCCNC(=N)N)NC(=O)[C@H](CCCCN)NC(=O)[C@H](CCCCN)NC(=O)[C@H](CCCNC(=N)N)NC(=O)CN)C(=O)O` [C14A, C20R, C22M] (H-GRKKRRQRRRPPQALAFYARFM-OH) came in with an IC50 in series [1] of 0.58 µM. Further, the “HEK293 CC50” value in the series on HEK293 cells turned out to be 63 µM. Further, in series [2], the half-maximal inhibitory concentration (IC50) was found to be 3.59 µM. Further, in series [3], the “hemolysis of human RBCs” value is given as “neither induce hemolysis” and the “swelling of RBCs (pellet size after centrifugation)” value was “reduced swelling”.
As to `CC(C)C[C@@H]1NC(=O)[C@@H](NC(=O)[C@H](CCC(N)=O)NC(=O)[C@@H]2CCCN2C(=O)[C@@H]2CCCN2C(=O)[C@H](CCCNC(=N)N)NC(=O)[C@H](CCCNC(=N)N)NC(=O)[C@H](CCCNC(=N)N)NC(=O)[C@H](CCC(N)=O)NC(=O)[C@H](CCCNC(=N)N)NC(=O)[C@H](CCCNC(=N)N)NC(=O)[C@H](CCCCN)NC(=O)[C@H](CCCCN)NC(=O)[C@H](CCCNC(=N)N)NC(=O)CN)CSSC[C@@H](C(=O)N[C@@H](Cc2ccccc2)C(=O)O)NC(=O)[C@H](C)NC(=O)[C@H](Cc2ccc(O)cc2)NC(=O)[C@H](Cc2ccccc2)NC(=O)[C@H](C)NC1=O` [C22del_cyc] (H-GRKKRRQRRRPPQCLAFYACF-OH; disulfide 14-20), the concentration for half-maximal inhibition (IC50) in series [1] worked out at 1.41 µM. Besides, the half-inhibitory concentration (IC50) in series [2] came out at 12.2 µM. For the same compound, in series [3], the “hemolysis of human RBCs” value was “neither induce hemolysis” and the “swelling of RBCs (pellet size after centrifugation)” value is reported as “reduced swelling”.
